From US20230100838A1 (Revolution Medicines, Inc., priority 2019, published 2023)

How the values were obtained:
Assay type in all cases: binding
[1] = target: T1, GDP-loaded K-Ras (1-169) G12D, C51S, C80L, C118S (Homo sapiens, UniProt P01116, C118S/C51S/C80L/G12D); experiment: K-Ras G12D(GDP) cross-linking assay (conjugate formation, TOF mass spectrometry); set-up: key: 0: No observed x-linking; +: 0 < x ≤ 20; ++: 20 < x ≤ 40; +++: 40 < x ≤ 100; settings: percent covalently modified K-Ras by MS, room temperature, typical compound conc. 2, 10, 25 μM, endpoints 1 and 24 h
T1 construct: GDP-loaded K-Ras (1-169) G12D, C51S, C80L, C118S
In short: (§1)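 5 μM protein (final, from 50 μM) in HEPES/NaCl/MgCl2 buffer pH 7.4 with compound typically at 2, 10 and 25 μM, room temperature, 1 and 24 h endpoints; formic acid quench. Intact-protein LC–TOF MS; percent modification is covalent adduct peak height over total K-Ras peak height.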

[2] = target: K-Ras G12S (Homo sapiens, UniProt P01116, G12S); experiment: K-Ras G12S cross-linking assay (comparable procedure, conjugate formation, TOF mass spectrometry); set-up: key: 0: No observed x-linking
In short: as §1

[3] = target: T2, GDP-loaded K-Ras (1-169) C51S, C80L, C118S (Homo sapiens, UniProt P01116, C118S/C51S/C80L); experiment: K-Ras WT (GDP) cross-linking assay (conjugate formation, TOF mass spectrometry); set-up: key: 0: No observed x-linking; +: 0 < x ≤ 20; ++: 20 < x ≤ 40; +++: 40 < x ≤ 100; settings: percent covalently modified K-Ras by MS, room temperature, typical compound conc. 2, 10, 25 μM, endpoints 1 and 24 h
T2 construct: GDP-loaded K-Ras (1-169) C51S, C80L, C118S
In short: as §1

[4] = Table 4, percent covalently modified K-Ras by MS
[5] = Table 5, percent covalently modified K-Ras by MS

Row | G12D x-linking (%) ([1]; Table 4) | G12S x-linking (%) [2, 4] | WT x-linking (%) ([3]; Table 4) | G12D x-linking (%) ([1]; Table 5) | G12S x-linking (%) [2, 5] | WT x-linking (%) ([3]; Table 5) | Structure (SMILES)
1 | ++ (20 < x ≤ 40) | ++ (10 < x ≤ 100) | ++ (20 < x ≤ 100) | – | – | – | COCCN=C=NCCCN(C)c1nc(=O)n(-c2c(C)ccnc2C(C)C)c2nc(-c3ccccc3F)c(F)cc12 [Example 56]
2 | – | – | – | +++ (40 < x ≤ 100) | ++ (10 < x ≤ 100) | ++ (20 < x ≤ 100) | Cc1cccc2cccc(N3CCc4c(nc(OC[C@@H]5CCCN5C)nc4N4CCC(N=C=NCCN(C)c5ccncn5)CC4)C3)c12 [Example 92, N-methyl-N-(2-((((1-(7-(8-methylnaphthalen-1-yl)-2-(((S)-1-methylpyrrolidin-2-yl)methoxy)-5,6,7,8-tetrahydropyrido[3,4-d]pyrimidin-4-yl)piperidin-4-yl)imino)methylene)amino)ethyl)pyrimidin-4-amine]
3 | +++ (40 < x ≤ 100) | ++ (10 < x ≤ 100) | ++ (20 < x ≤ 100) | – | – | – | COc1ccc(CN=C=NCCN(C)c2nc(OC[C@@H]3CCCN3C)nc3c2CCN(c2cccc4cccc(C)c24)C3)cc1 [Example 29, N-(2-((((4-methoxybenzyl)imino)methylene)amino)ethyl)-N-methyl-7-(8-methylnaphthalen-1-yl)-2-(((S)-1-methylpyrrolidin-2-yl)methoxy)-5,6,7,8-tetrahydropyrido[3,4-d]pyrimidin-4-amine]
4 | + (0 < x ≤ 20) | + (0 < x ≤ 10) | + (0 < x ≤ 20) | – | – | – | Cc1cccc2cccc(N3CCc4c(nc(OC[C@@H]5CCCN5C)nc4N4CCC(N(C)C(=O)C5CN5S(C)(=O)=O)CC4)C3)c12 (stereo partly drawn) [Example 44, N-methyl-(1-(7-(8-methylnaphthalen-1-yl)-2-(((S)-1-methylpyrrolidin-2-yl)methoxy)-5,6,7,8-tetrahydropyrido[3,4-d]pyrimidin-4-yl)piperidin-4-yl)-1-(methylsulfonyl)aziridine-2-carboxamide]
5 | – | – | – | +++ (40 < x ≤ 100) | ++ (10 < x ≤ 100) | + (0 < x ≤ 20) | COCCN=C=N[C@@H]1CCN(c2nc(OC[C@@H]3CCCN3C)nc3c2CCN(c2cccc4cccc(C)c24)C3)C[C@@H]1CC#N [Example 75, 2-((3S,4R)-4-((((2-methoxyethyl)imino)methylene)amino)-1-(7-(8-methylnaphthalen-1-yl)-2-(((S)-1-methylpyrrolidin-2-yl)methoxy)-5,6,7,8-tetrahydropyrido[3,4-d]pyrimidin-4-yl)piperidin-3-yl)acetonitrile]
6 | +++ (40 < x ≤ 100) | ++ (10 < x ≤ 100) | ++ (20 < x ≤ 100) | – | – | – | COCCN=C=NC1CCN(c2nc(OC[C@@H]3CCCN3C)nc3c2CCN(c2cccc4cccc(C)c24)C3)CC1 [Example 20, N-(2-methoxyethyl)-N-(1-(7-(8-methylnaphthalen-1-yl)-2-(((S)-1-methylpyrrolidin-2-yl)methoxy)-5,6,7,8-tetrahydropyrido[3,4-d]pyrimidin-4-yl)piperidin-4-yl)methanediimine]
7 | +++ (40 < x ≤ 100) | ++ (10 < x ≤ 100) | ++ (20 < x ≤ 100) | – | – | – | CCCN=C=NC1CCN(c2nc(OC[C@@H]3CCCN3C)nc3c2CCN(c2cccc4cccc(C)c24)C3)CC1 [Example 22, N-(1-(7-(8-methylnaphthalen-1-yl)-2-(((S)-1-methylpyrrolidin-2-yl)methoxy)-5,6,7,8-tetrahydropyrido[3,4-d]pyrimidin-4-yl)piperidin-4-yl)-N-propylmethanediimine]
8 | – | – | – | ++ (20 < x ≤ 40) | + (0 < x ≤ 10) | + (0 < x ≤ 20) | CSCCCN=C=NC1CCN(c2nc(OC[C@@H]3CCCN3C)nc3c2CCN(c2cccc4cccc(C)c24)C3)CC1 [Example 93, N-(1-(7-(8-methylnaphthalen-1-yl)-2-(((S)-1-methylpyrrolidin-2-yl)methoxy)-5,6,7,8-tetrahydropyrido[3,4-d]pyrimidin-4-yl)piperidin-4-yl)-N-(3-(methylthio)propyl)methanediimine]
9 | + (0 < x ≤ 20) | + (0 < x ≤ 10) | + (0 < x ≤ 20) | – | – | – | CN(CCN=C=NCc1ccccc1)c1ncnc2c(F)c(-c3ccccc3F)c(Cl)cc12 [Example 8, N-(2-(((benzylimino)methylene)amino)ethyl)-6-chloro-8-fluoro-7-(2-fluorophenyl)-N-methylquinazolin-4-amine]
10 | – | – | – | ++ (20 < x ≤ 40) | + (0 < x ≤ 10) | + (0 < x ≤ 20) | Cc1cccc2cccc(N3CCc4c(nc(OC[C@@H]5CCCN5C)nc4N4CCC(N=C=NCCCN(C)c5ccccn5)CC4)C3)c12 [Example 91, N-methyl-N-(3-((((1-(7-(8-methylnaphthalen-1-yl)-2-(((S)-1-methylpyrrolidin-2-yl)methoxy)-5,6,7,8-tetrahydropyrido[3,4-d]pyrimidin-4-yl)piperidin-4-yl)imino)methylene)amino)propyl)pyridin-2-amine]
11 | 0 | 0 | 0 | – | – | – | Cc1cccc2cccc(N3CCc4c(nc(OC[C@@H]5CCCN5C)nc4N4CCN(C5=NCCO5)[C@@H](CC#N)C4)C3)c12 [Example 38, 2-((S)-1-(4,5-dihydrooxazol-2-yl)-4-(7-(8-methylnaphthalen-1-yl)-2-(((S)-1-methylpyrrolidin-2-yl)methoxy)-5,6,7,8-tetrahydropyrido[3,4-d]pyrimidin-4-yl)piperazin-2-yl)acetonitrile]
12 | – | – | – | +++ (40 < x ≤ 100) | ++ (10 < x ≤ 100) | ++ (20 < x ≤ 100) | Cc1cccc2cccc(N3CCc4c(nc(OC[C@@H]5CCCN5C)nc4N4CCC(N=C=NCCCN5CCOCC5)CC4)C3)c12 [Example 85, N-(1-(7-(8-methylnaphthalen-1-yl)-2-(((S)-1-methylpyrrolidin-2-yl)methoxy)-5,6,7,8-tetrahydropyrido[3,4-d]pyrimidin-4-yl)piperidin-4-yl)-N-(3-morpholinopropyl)methanediimine]
13 | +++ (40 < x ≤ 100) | ++ (10 < x ≤ 100) | ++ (20 < x ≤ 100) | – | – | – | COc1ccc(CN=C=NCCCN(C)c2nc(OC[C@@H]3CCCN3C)nc3c2CCN(c2cccc4cccc(C)c24)C3)cc1 [Example 33, N-(3-((((4-methoxybenzyl)imino)methylene)amino)propyl)-N-methyl-7-(8-methylnaphthalen-1-yl)-2-(((S)-1-methylpyrrolidin-2-yl)methoxy)-5,6,7,8-tetrahydropyrido[3,4-d]pyrimidin-4-amine]
14 | – | – | – | +++ (40 < x ≤ 100) | ++ (10 < x ≤ 100) | ++ (20 < x ≤ 100) | COCCN=C=N[C@H]1C[C@H](Nc2nc(OC[C@@H]3CCCN3C)nc3c2CCN(c2cccc4cccc(C)c24)C3)C1 [Example 72, N-((1r,3S)-3-((((2-methoxyethyl)imino)methylene)amino)cyclobutyl)-7-(8-methylnaphthalen-1-yl)-2-(((S)-1-methylpyrrolidin-2-yl)methoxy)-5,6,7,8-tetrahydropyrido[3,4-d]pyrimidin-4-amine]
15 | + (0 < x ≤ 20) | + (0 < x ≤ 10) | + (0 < x ≤ 20) | – | – | – | Fc1ccccc1-c1c(Cl)cc2c(N3CCC(N=C=Nc4ccccc4)CC3)ncnc2c1F [Example 2, N-(1-(6-chloro-8-fluoro-7-(2-fluorophenyl)quinazolin-4-yl)piperidin-4-yl)-N-phenylmethanediimine]
16 | + (0 < x ≤ 20) | + (0 < x ≤ 10) | + (0 < x ≤ 20) | – | – | – | CN=C=NCCN(C)c1ncnc2c(F)c(-c3ccccc3F)c(Cl)cc12 [Example 9, 6-chloro-8-fluoro-7-(2-fluorophenyl)-N-methyl-N-(2-(((methylimino)methylene)amino)ethyl)quinazolin-4-amine]
17 | – | – | – | + (0 < x ≤ 20) | + (0 < x ≤ 10) | + (0 < x ≤ 20) | COc1ccccc1CN=C=NC1CCN(c2nc(OC[C@@H]3CCCN3C)nc3c2CCN(c2cccc4cccc(C)c24)C3)CC1 [Example 81, N-(2-methoxybenzyl)-N-(1-(7-(8-methylnaphthalen-1-yl)-2-(((S)-1-methylpyrrolidin-2-yl)methoxy)-5,6,7,8-tetrahydropyrido[3,4-d]pyrimidin-4-yl)piperidin-4-yl)methanediimine]

Row | Structure (SMILES) | G12D x-linking (%) ([1]; Table 4) | G12S x-linking (%) [2, 4] | WT x-linking (%) ([3]; Table 4) | G12D x-linking (%) ([1]; Table 5) | G12S x-linking (%) [2, 5] | WT x-linking (%) ([3]; Table 5)
18 | Cc1cccc2cccc(N3CCc4c(nc(OC[C@@H]5CCCN5C)nc4NCCNC(=O)NCCCl)C3)c12 [Example 36, (S)-1-(2-chloroethyl)-3-(2-((7-(8-methylnaphthalen-1-yl)-2-((1-methylpyrrolidin-2-yl)methoxy)-5,6,7,8-tetrahydropyrido[3,4-d]pyrimidin-4-yl)amino)ethyl)urea] | + (0 < x ≤ 20) | + (0 < x ≤ 10) | + (0 < x ≤ 20) | – | – | –
